Measured values reported in patent US20210222105A1, “A Microfluidic Cartridge, A Kit And An Assay” (CENTRE FOR CELLULAR AND MOLECULAR PLATFORMS, priority 2018, published 2021).

Tests used:
Type in all cases: cell-based, Escherichia coli
E. coli = test: Agent susceptibility test in microfluidic cartridge with DNA-based pH sensor (FRET, donor fluorescence); conditions: 5×10^5 CFU/ml, 37° C., up to 6 hour incubation, FIGS. 17, 19
Protocol: About 5 μM sensor was prepared and stored at about 4° C. overnight for equilibration of the sensors. Overnight grown cultures of E. coli, S. aureus, E. faecalis was picked from LB agar plate and dispersed in cation adjusted Mueller Hinton broth with 1% glucose. The concentration of the cells were adjusted to 0.5 MFU. antibiotic dilution was prepared according to CSI guidelines. Stock solutions were prepared in 96 well plate using 23 μl of cation adjusted Muller Hinton broth, 25 μl of desired concentration of antibiotic and 2 μl of 5 μM sensors. Then 50 μl of 1×10^6 CFU/ml inoculum was added in wells to achieve inoculum size 5×10^5 CFU/ml in final assay volume. Each stock solution was loaded on microfluidic cartridge. Microfluidic cartridge was sealed with polypropylene sealing film and incubated at 37° C. with 70% humidity. The change in the donor fluorescence intensity was recorded till 6 hour incubation. Each microchamber of the microfluidic cartridge was image using 1×73 Olympus inverted fluorescence microscope. Images were analyzed using ImageJ version 1.8.0. the average was taken over replicate and standard deviation was calculated (illustrated in FIG. 18).

[1] = tested on: E. coli ATCC 25922 QC strain; test: Qualitative phenol red colour-change test of microbial growth in microfluidic cartridge and 96 well plate; conditions: 37° C., results in 3 hour, FIG. 15
Protocol: Qualitative test was performed to check microbial growth in the microfluidic cartridge. Phenol red (about 0.05% w/v) containing cation adjusted Muller Hinton broth was used as susceptibility indicator. Microbial growth changes pH and Phenol red changes color with pH variation. Thus, a colour change could provide a read-out on the susceptibility or resistance of a microorganism. No color change would indicate no growth as a response to antibiotics. Briefly, microfluidic cartridge was cleaned with water and then rinsed with 70% ethanol and then UV sterilized by exposing under UV light for about 30 minutes. To compare the susceptibility test preformed on the microfluidic cartridge and 96 well plate, master mix of about 150 μl was prepared on 96 well plate and 6 μl o the master mix was used in microchamber of the microfluidic cartridge. Both 96 well plate and microfluidic cartridge was sealed with lamination film and incubated at 37° C. and change in color intensity was recorded (illustrated in FIG. 15). […] The results were obtained in 3 hour and design of the microfluidic cartridge was suitable for microbial growth and no cross contamination was observed.

E. coli ATCC 25922 = test: Agent susceptibility phenotypic assay, microfluidic cartridge compared with 96 well plate; conditions: 0.5, 1, 2 and 4 μg/ml tested; 0.5 MCF inoculum; cation adjusted Muller Hinton broth; FIG. 14
Protocol: The agent susceptibility assay was carried out in a microfluidic cartridge. This assay was also carried out in a micro-titer plate as a standard reference control. Bacterial/clinical sample grown at suitable turbidity or at least about 0.3 to about 1.0 McFarland unit was transferred to the microchamber. The microchamber had microbial growth sensors (pH sensor) at concentration of about 5 μM to about 50 μM, cation adjusted Muller Hinton broth or suitable microbial growth media, and antibiotics concentration based on CLSI guidelines. The total reaction volume range was from about 6 μl to about 150 μl. Plate/test card were sealed using plate sealer or lamination film and incubated at about 32° C. to about 37° C., at about 300-500 rpm orbital shaking. The change in the fluorescence intensity of pH sensors was measured using fluorescence reader after every 20-60 minutes till about 4-7 hours incubation period. Thus, the susceptibility or resistance of the microorganism was assessed towards the agent.
Agent susceptibility was tested on microfluidic cartridge and the outcome compared with optimized 96 well plate. Phenotypic assay was optimized on 96 well pate, briefly, an overnight grown E. coli ATCC25922 culture was dispersed in cation adjusted muller Hinton broth to prepare inoculum of 0.5 MCF unit.

SMILES | sensitivity cut of value (E. coli) | change in colour of indicator dye (phenol red) ([1]; amikacin concentration above 2 μg/ml) | change in colour of indicator dye (phenol red) ([1]; at 0.5 and 1 ug/ml amikacin) | amikacin concentration at which E. coli ATCC 25922 showed susceptibility (E. coli ATCC 25922) [µg/mL]
CCN1CCN(C(=O)N[C@@H](C(=O)N[C@@H]2C(=O)N3[C@@H]2SC(C)(C)[C@@H]3C(=O)O)c2ccccc2)C(=O)C1=O [piperacillin] | about 2 μg/ml |  |  | 
NCC[C@H](O)C(=O)N[C@@H]1C[C@H](N)[C@@H](O[C@H]2O[C@H](CN)[C@@H](O)[C@H](O)[C@H]2O)[C@H](O)[C@H]1O[C@H]1O[C@H](CO)[C@@H](O)[C@H](N)[C@H]1O [amikacin] |  | no change in the color intensity | change in the color of indicator dye | 2
